Measurements taken from patent USRE46792E1, “Oxazole compound and pharmaceutical composition” (Otsuka Pharmaceutical Co., Ltd., priority 2005, dated 2018).

Each compound was assayed against human PDE4D3 (PDE4D) (Homo sapiens (Human), UniProt Q08499) (assay: Phosphodiesterase (PDE)4 inhibitory activity evaluation test ([3H]cAMP hydrolysis by PDE4D enzyme solution)). Conditions: recombinant human PDE4D3 expressed in COS-7 cells; [3H]cAMP substrate; 10 min at 30° C.; 2% DMSO.
Sequence of human PDE4D3 (PDE4D) (Q08499 other isoform, or with tags, fused parts or gaps): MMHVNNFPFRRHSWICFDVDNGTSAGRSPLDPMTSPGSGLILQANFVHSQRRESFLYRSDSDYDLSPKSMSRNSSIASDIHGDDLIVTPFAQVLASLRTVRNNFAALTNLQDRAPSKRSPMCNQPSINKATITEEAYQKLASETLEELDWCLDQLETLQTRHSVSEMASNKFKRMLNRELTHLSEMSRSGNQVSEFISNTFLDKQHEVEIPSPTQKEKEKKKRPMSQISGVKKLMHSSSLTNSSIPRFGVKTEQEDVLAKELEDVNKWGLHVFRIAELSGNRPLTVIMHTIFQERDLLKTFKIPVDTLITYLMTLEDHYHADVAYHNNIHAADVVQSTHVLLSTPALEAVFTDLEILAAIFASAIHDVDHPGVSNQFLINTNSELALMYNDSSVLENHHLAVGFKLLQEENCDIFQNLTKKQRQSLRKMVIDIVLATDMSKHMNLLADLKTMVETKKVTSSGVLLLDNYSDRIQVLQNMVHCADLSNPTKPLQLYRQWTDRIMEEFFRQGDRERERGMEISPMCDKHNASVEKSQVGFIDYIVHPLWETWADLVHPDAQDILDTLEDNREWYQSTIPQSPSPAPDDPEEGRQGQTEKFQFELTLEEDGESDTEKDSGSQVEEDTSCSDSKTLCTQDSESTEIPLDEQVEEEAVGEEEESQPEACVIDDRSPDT
Format: biochemical
Source text: Phosphodiesterase (PDE)4 Inhibitory Activity Evaluation Test
(1) Large Scale Plasmid Preparation
Plasmid containing genes (HPDE4D) coding for human PDE4D3 cDNA (stored in Otsuka America Pharmaceutical, Inc., Maryland Research Laboratories) was transformed in E. coli, cultured on a large scale, and purified using an EndoFree™ Plasmid Maxi Kit (Qiagen).
(2) Abundant Expression and Purification of PDE4D
COS-7 cells derived from African green monkey kidneys were passage cultured in D-MEM media containing 100 units/ml penicillin, 100 μg/ml streptomycin, and 10% FBS. The cells were transfected with the plasmid prepared in (1) above using Lipofectamine™ 2000 (hereinafter referred to as “LF2000”, Invitrogen), following the manufacturer's protocol. The COS-7 cells were inoculated in a 10 cm culture dish on the previous day so as to be 90% confluent on the day of transfection. Culture dishes each containing a plasmid solution (solution A) in which 24 μg of plasmid was diluted in 1.5 ml Opti-MEM I Reduced Serum Medium (Invitrogen) and an LF2000 solution (solution B) in which 60 μl of LF2000 was diluted in 1.5 ml Opti-MEM I Reduced Serum Medium were separately allowed to stand for 5 minutes at room temperature. Solutions A and B were then mixed and the mixture was allowed to stand for 20 minutes at room temperature. The mixture was added to the cultured cells, and incubated at 37° C. (5% CO2) overnight. On the following day, the medium was replaced, and the mixture was further incubated overnight to harvest the cells in the following manner. The cells were washed with PBS (Sigma) once, and 10 ml of a Trypsin-EDTA solution (Sigma) was added to each culture dish. After the solution was distributed to each of the culture dishes, the cells were detached, and the dishes were allowed to stand for about 5 minutes at 37° C. The detached cells from the dishes were suspended in media, collected into centrifuge tubes, and centrifuged at 1200 rpm for 5 minutes at 4° C., and supernatants were removed. The cells were further washed with PBS, and stored at −80° C. KHEM buffer (100 mM Hepes, 50 mM KCl, 10 mM EGTA, 1.92 mM MgCl2, pH 7.4) containing 1 mM DTT, 1 μg/ml antipain, 1 μg/ml aprotinin, 1 μg/ml leupeptin, 1 μg/ml pepstatin A, 157 μg/ml benzamidine, and 120 μg/ml Pefabloc SC was added to the stored cells, and the contents were moved to a glass homogenizer to be homogenized on ice. The cell suspension was centrifuged at 1000 rpm for 5 minutes at 4° C., and the supernatant was further centrifuged at 14000 rpm for one hour. After centrifugation, the supernatant was dispensed into new tubes as PDE4D enzyme solutions, and stored in a deep freezer.
(3) Determination on Dilution Ratio of PDE4D Enzyme Solutions
The PDE4D enzyme solutions prepared in (2) above were dissolved in 20 mM Tris-HCl solution (pH 7.4) to give 10-, 25-, 50-, 100-, 200-, 400-, and 800-fold dilutions of the enzyme solutions. PDE4D activities were measured according to (4) below. The percentage of catalyzed cAMP to total cAMP was calculated, and such a dilution, in which the percentage was between 10% and 30%, was adopted in the inhibitory study below.
(4) Measurement of PDE4D Inhibitory Activity
Necessary amounts of test compounds were weighed, and 100% dimethylsulfoxide (DMSO) was added thereto to adjust the concentration to 10 mM. The solutions were stored in a freezer as stock solutions of each test compound. After being thawed when required, the solutions were diluted 20-fold with 100% DMSO to give a 500 μM concentration. Further, 10-fold serial dilutions were made with 100% DMSO to prepare test compounds of different concentrations. 2 μl of solutions containing one of each of the test compound were separately added into 1.2 ml tubes in which 23 μl of 20 mM Tris-HCl (pH 7.4) had been placed beforehand. […]
For `C=CCCOc1cc(-c2nc(CCC(=O)c3ncccc3C)co2)ccc1OC` [Example 146, 3-[2-(3-(3-butenyloxy)-4-methoxyphenyl)oxazol-4-yl]-1-(3-methylpyridin-2-yl)propan-1-one], the IC50 was under 50 nM.
`COc1ccc(-c2nc(CCC(=O)c3ncccc3C)co2)cc1OCCC1CC1` [Example 153, 3-{2-[3-(2-cyclopropylethoxy)-4-methoxyphenyl]oxazol-4-yl}-1-(3-methylpyridin-2-yl)propan-1-one] showed an IC50 of under 50 nM.
`COc1ccc(-c2nc(CCC(=O)c3ncccc3C)co2)cc1OCC(F)(F)F` [Example 155, 3-{2-[4-methoxy-3-(2,2,2-trifluoroethoxy)phenyl]oxazol-4-yl}-1-(3-methylpyridin-2-yl)propan-1-one] gave an IC50 of under 50 nM.
Work on `COc1ccc(-c2nc(CCC(=O)c3ncccc3C)co2)cc1OC1Cc2ccccc2C1` [Example 159, 3-{2-[3-(indan-2-yloxy)-4-methoxyphenyl]oxazol-4-yl}-1-(3-methylpyridin-2-yl)propan-1-one] yielded an IC50 of under 50 nM.
For `C=CCOc1cc(-c2nc(CCC(=O)c3ccccc3OCC=C)co2)ccc1OC` [Example 166, 3-[2-(3-allyloxy-4-methoxyphenyl)oxazol-4-yl]-1-(2-allyloxyphenyl)propan-1-one], the IC50 was under 50 nM.
In the case of `COc1ccc(-c2nc(CCC(=O)c3ccccc3OC)co2)cc1OC(C)C` [Example 169, 3-[2-(3-isopropoxy-4-methoxyphenyl)oxazol-4-yl]-1-(2-methoxyphenyl)propan-1-one], the IC50 is reported as under 50 nM.
Compound `COc1ccc(-c2nc(CCC(=O)c3ccccc3OC)co2)cc1OCC1CC1` [Example 170, 3-[2-(3-cyclopropylmethoxy-4-methoxyphenyl)oxazol-4-yl]-1-(2-methoxyphenyl)propan-1-one] has an IC50 of under 50 nM.
Compound `CCOc1cc(-c2nc(CCC(=O)c3ccccc3OC)co2)ccc1OC` [Example 172, 3-[2-(3-ethoxy-4-methoxyphenyl)oxazol-4-yl]-1-(2-methoxyphenyl)propan-1-one] has an IC50 of under 50 nM.
Work on `C=CCOc1cc(-c2nc(CCC(=O)c3ccccc3OC)co2)ccc1OC` [Example 174, 3-[2-(3-allyloxy-4-methoxyphenyl)oxazol-4-yl]-1-(2-methoxyphenyl)propan-1-one] yielded an IC50 of under 50 nM.
In the case of `CCOc1ccc(-c2nc(CCC(=O)c3ncccc3C)co2)cc1OCC` [Example 181, 3-[2-(3,4-diethoxyphenyl)oxazol-4-yl]-1-(3-methylpyridin-2-yl)propan-1-one], the IC50 is reported as under 50 nM.
Work on `CCOc1ccc(-c2nc(CCC(=O)c3ccccc3OCC)co2)cc1OCC` [Example 182, 3-[2-(3,4-diethoxyphenyl)oxazol-4-yl]-1-(2-ethoxyphenyl)propan-1-one] yielded an IC50 of under 50 nM.
Work on `CCCOc1ccccc1C(=O)CCc1coc(-c2ccc(OC)c(OCC)c2)n1` [Example 195, 3-[2-(3-ethoxy-4-methoxyphenyl)oxazol-4-yl]-1-(2-propoxyphenyl)propan-1-one] yielded an IC50 of under 50 nM.
`COc1ccc(-c2nc(CCC(=O)c3ccccc3OC(C)C)co2)cc1OCC1CC1` [Example 208, 3-[2-(3-cyclopropylmethoxy-4-methoxyphenyl)oxazol-4-yl]-1-(2-isopropoxyphenyl)propan-1-one] gave an IC50 of under 50 nM.
In the case of `C=CCOc1ccccc1C(=O)CCc1coc(-c2ccc(OC)c(OC(C)C)c2)n1` [Example 224, 1-(2-allyloxyphenyl)-3-[2-(3-isopropoxy-4-methoxyphenyl)oxazol-4-yl]propan-1-one], the IC50 is reported as under 50 nM.
Work on `CCOc1cc(-c2nc(CCC(=O)c3ccccc3OC(F)F)co2)ccc1OC` [Example 274, 1-(2-difluoromethoxyphenyl)-3-[2-(3-ethoxy-4-methoxyphenyl)oxazol-4-yl]propan-1-one] yielded an IC50 of under 50 nM.
`COc1ccc(-c2nc(CCC(=O)c3ccccc3OCCF)co2)cc1OC(C)C` [Example 275, 1-(2-fluoroethoxyphenyl)-3-[2-(3-isopropoxy-4-methoxyphenyl)oxazol-4-yl]propan-1-one] showed an IC50 of under 50 nM.
`C=CCCOc1cc(-c2nc(CCC(=O)c3ccccc3OCCF)co2)ccc1OC` [Example 276, 3-[2-(3-but-3-enyloxy-4-methoxyphenyl)oxazol-4-yl]-1-[2-(2-fluoroethoxy)phenyl]propan-1-one] was tested, and the IC50 was under 50 nM.
`COc1ccc(-c2nc(CCC(=O)c3ccccc3OCC(F)F)co2)cc1OC(C)C` [Example 278, 1-[2-(2,2-difluoroethoxy)phenyl]-3-[2-(3-isopropoxy-4-methoxyphenyl)oxazol-4-yl]propan-1-one] was tested, and the IC50 was under 50 nM.
`CCOc1cc(-c2nc(CCC(=O)c3ccccc3OCC(F)F)co2)ccc1OC` [Example 280, 1-[2-(2,2-difluoroethoxy)phenyl]-3-[2-(3-ethoxy-4-methoxyphenyl)oxazol-4-yl]propan-1-one] gave an IC50 of under 50 nM.
For `C=CCOc1cc(-c2nc(CCC(=O)c3ccccc3OCC(F)F)co2)ccc1OC` [Example 281, 3-[2-(3-allyloxy-4-methoxyphenyl)oxazol-4-yl]-1-[2-(2,2-difluoroethoxy)phenyl]propan-1-one], the IC50 was under 50 nM.
For `COc1ccc(-c2nc(CCC(=O)c3ccccc3OCC(F)F)co2)cc1OCC1CC1` [Example 283, 3-[2-(3-cyclopropylmethoxy-4-methoxyphenyl)oxazol-4-yl]-1-[2-(2,2-difluoroethoxy)phenyl]propan-1-one], the IC50 was under 50 nM.
For `COc1ccc(-c2nc(CCC(=O)c3ccccc3OCC(F)F)co2)cc1OCC(F)F` [Example 284, 3-{2-[3-(2,2-difluoroethoxy)-4-methoxyphenyl]oxazol-4-yl}-1-[2-(2,2-difluoroethoxy)phenyl]propan-1-one], the IC50 was under 50 nM.
`COc1ccc(-c2nc(CCC(=O)c3ccccc3OCC(F)F)co2)cc1OCC(C)C` [Example 285, 1-[2-(2,2-difluoroethoxy)phenyl]-3-[2-(3-isobutoxy-4-methoxyphenyl)oxazol-4-yl]-propan-1-one] was tested, and the IC50 was under 50 nM.
With `CCOc1ccc(-c2nc(CCC(=O)c3ccccc3OCCF)co2)cc1OCC` [Example 289, 3-[2-(3,4-diethoxyphenyl)oxazol-4-yl]-1-[2-(2-fluoroethoxy)phenyl]propan-1-one] the IC50 was under 50 nM.
`CCOc1ccc(-c2nc(CCC(=O)c3ccccc3OCC(F)F)co2)cc1OCC` [Example 290, 3-[2-(3,4-diethoxyphenyl)oxazol-4-yl]-1-[2-(2,2-difluoroethoxy)phenyl]propan-1-one] was tested, and the IC50 was under 50 nM.
`CCOc1ccc(-c2nc(CCC(=O)c3ccc(F)cc3OCC)co2)cc1OCC` [Example 299, 3-[2-(3,4-diethoxyphenyl)oxazol-4-yl]-1-(2-ethoxy-4-fluorophenyl)propan-1-one] gave an IC50 of under 50 nM.
For `CCOc1cc(-c2nc(CCC(=O)c3ccc(F)cc3OCC)co2)ccc1OC` [Example 304, 1-(2-ethoxy-4-fluorophenyl)-3-[2-(3-ethoxy-4-methoxyphenyl)oxazol-4-yl]propan-1-one], the IC50 was under 50 nM.
In the case of `CCOc1cc(-c2nc(CCC(=O)c3ccc(F)cc3OC(C)C)co2)ccc1OC` [Example 305, 3-[2-(3-ethoxy-4-methoxyphenyl)oxazol-4-yl]-1-(4-fluoro-2-isopropoxyphenyl)propan-1-one], the IC50 is reported as under 50 nM.
For `COc1ccc(-c2nc(CCC(=O)c3ncccc3C)co2)cc1OCC(F)F` [Example 309, 3-{2-[3-(2,2-difluoroethoxy)-4-methoxyphenyl]oxazol-4-yl}-1-(3-methylpyridin-2-yl)propan-1-one], the IC50 was under 50 nM.
In the case of `CCC(C)Oc1cc(-c2nc(CCC(=O)c3ncccc3C)co2)ccc1OC` (stereo not drawn) [Example 311, 3-[2-(3-sec-butoxy-4-methoxyphenyl)oxazol-4-yl]-1-(3-methylpyridin-2-yl)propan-1-one], the IC50 is reported as under 50 nM.
